Results reported in publication PMC10706087, “The Subtype Selectivity in Search of Potent Hypotensive Agents among 5,5-Dimethylhydantoin Derived α1-Adrenoceptors Antagonists” (International Journal of Molecular Sciences, 2023).
Where a name gives a salt, the structure may show the parent alone. Read-outs that look alike come from different tables or passages of the source.

Key:
[1] = target: α1-adrenoceptors (α1-ARs), rat cerebral cortex; experiment: Radioligand binding assay with [3H]-prazosin, affinity for α1-ARs; conditions: three independent experiments in duplicates, read-out: α1-adrenoceptor affinity Ki
[2] = target: T1, human adrenergic receptor α1A (Homo sapiens, UniProt P35348); experiment: Intrinsic activity, aequorin luminescence functional assay at α1A-AR; assay type: cell-based; conditions: for α1A-AR Profile: agonist/antagonist profile; for IC50: cells expressing aequorin and human α1A, against phenylephrine, means of three independent experiments in duplicates; for Selectivity Ratio α1B/α1A: selectivity for α1A-AR (IC50(α1B-AR)/IC50(α1A-AR))
T1 sequence (P35348 1-466): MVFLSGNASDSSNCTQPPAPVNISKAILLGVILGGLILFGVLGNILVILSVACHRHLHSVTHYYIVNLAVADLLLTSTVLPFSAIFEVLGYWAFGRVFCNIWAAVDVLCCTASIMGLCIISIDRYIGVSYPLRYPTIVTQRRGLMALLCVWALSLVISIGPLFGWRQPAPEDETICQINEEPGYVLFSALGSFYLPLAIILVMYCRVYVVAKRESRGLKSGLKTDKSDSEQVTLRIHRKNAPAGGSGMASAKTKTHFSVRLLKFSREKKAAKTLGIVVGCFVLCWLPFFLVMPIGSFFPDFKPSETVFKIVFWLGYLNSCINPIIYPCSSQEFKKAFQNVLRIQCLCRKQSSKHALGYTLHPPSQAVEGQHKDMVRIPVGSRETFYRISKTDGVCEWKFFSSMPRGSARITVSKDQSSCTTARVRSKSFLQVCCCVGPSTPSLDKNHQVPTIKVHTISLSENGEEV

[3] = target: T2, human adrenergic receptor α1B (Homo sapiens, UniProt P35368); experiment: Intrinsic activity, aequorin luminescence functional assay at α1B-AR; assay type: cell-based; conditions: for α1B-AR Profile: agonist/antagonist profile; for IC50: cells expressing aequorin and human α1B, against phenylephrine, means of three independent experiments in duplicates; for Selectivity Ratio α1A/α1B: selectivity for α1B-AR (IC50(α1A-AR)/IC50(α1B-AR))
T2 sequence (P35368 1-520): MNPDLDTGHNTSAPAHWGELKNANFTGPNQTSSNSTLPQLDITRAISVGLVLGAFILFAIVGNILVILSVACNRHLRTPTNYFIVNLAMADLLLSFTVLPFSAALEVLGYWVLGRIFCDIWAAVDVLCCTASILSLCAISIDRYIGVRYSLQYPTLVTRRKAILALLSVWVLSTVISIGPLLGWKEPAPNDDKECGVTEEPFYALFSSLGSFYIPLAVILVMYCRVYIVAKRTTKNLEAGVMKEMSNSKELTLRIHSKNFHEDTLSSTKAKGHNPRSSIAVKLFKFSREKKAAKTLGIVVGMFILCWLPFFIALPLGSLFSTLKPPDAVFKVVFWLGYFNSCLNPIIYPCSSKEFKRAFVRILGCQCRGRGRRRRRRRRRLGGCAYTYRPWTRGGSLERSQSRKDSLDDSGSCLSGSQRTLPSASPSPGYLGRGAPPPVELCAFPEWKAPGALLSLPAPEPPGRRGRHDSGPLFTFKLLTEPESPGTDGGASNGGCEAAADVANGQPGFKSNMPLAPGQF

[4] = system: arterial blood pressure of normotensive Wistar rats; experiment: Influence on blood pressure in normotensive anesthetized rats after i.v. administration; assay type: in vivo, rat; conditions: for Diastolic blood pressure / Systolic blood pressure: mean, n = 6
Summary of the method: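 Normotensive rats were given thiopental (75 mg/kg) intraperitoneally as anesthesia. A heparinized saline-filled polyethylene tube was placed in the left carotid artery, and blood pressure was recorded with a PowerLab Apparatus. Compounds dissolved in ethyl alcohol 5% − kolliphor 5% − water 90% were injected intravenously at 1 mL/kg after 20 min of stabilization. Pressures were compared by two-way ANOVA with Sidak's post-hoc test.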

[5] = target: α1-adrenoceptors (α1-ARs), rat cerebral cortex; conditions: cited from earlier work
[6] = system: α1D- and α1A-AR subtype; set-up: method as in PMID 21753885; conditions: cited from earlier work
[7] = 2.0 mg/kg i.v., 0 min (initial, before administration)
[8] = i.v., normotensive anesthetized rats
[9] = published previously, read-out: α1-adrenoceptor affinity Ki
[10] = 1.0 mg/kg i.v., 0 min (initial, before administration)

Ki [1] [nM]	α1A-AR Profile [2]	IC50 [2] [nM]	Selectivity Ratio α1B/α1A [2]	α1B-AR Profile [3]	IC50 [3] [nM]	Selectivity Ratio α1A/α1B [3]	Compound	Diastolic blood pressure [4, 7]	Systolic blood pressure [4, 7]	Diastolic blood pressure ([4]; 2.0 mg/kg i.v., 5 min)	Systolic blood pressure ([4]; 2.0 mg/kg i.v., 5 min)	Diastolic blood pressure ([4]; 2.0 mg/kg i.v., 10 min)	Systolic blood pressure ([4]; 2.0 mg/kg i.v., 10 min)	Diastolic blood pressure ([4]; 2.0 mg/kg i.v., 20 min)	Systolic blood pressure ([4]; 2.0 mg/kg i.v., 20 min)	Diastolic blood pressure ([4]; 2.0 mg/kg i.v., 30 min)	Systolic blood pressure ([4]; 2.0 mg/kg i.v., 30 min)	Diastolic blood pressure ([4]; 2.0 mg/kg i.v., 40 min)	Systolic blood pressure ([4]; 2.0 mg/kg i.v., 40 min)	Diastolic blood pressure ([4]; 2.0 mg/kg i.v., 50 min)	also measured
270	Antagonist	3140	0.12	Antagonist	377	8.31	Cc1ccc(N2CCN(CC(O)CN3C(=O)N(Cc4ccc(Cl)cc4Cl)C(=O)C3(C)C)CC2)cc1C.Cl (stereo not shown) [Compound 12, 3-(2,4-dichlorobenzyl)-1-(3-(4-(3,4-dimethylphenyl)piperazin-1-yl)-2-hydroxypropyl)-5,5-dimethylimidazolidine-2,4-dione hydrochloride]	104.2	139.0	98.2	134.7	99.5	134.5	97.8	132.0	96.7	131.0	97.0	129.0	96.8	Systolic blood pressure ([4]; 2.0 mg/kg i.v., 50 min): 130.0; Diastolic blood pressure ([4]; 2.0 mg/kg i.v., 60 min): 97.3; melting point: 217 to 219 °C
29	Antagonist	139	2.39	Antagonist	331	0.42	COc1ccccc1N1CCN(CC(O)CN2C(=O)N(Cc3ccc(Cl)cc3Cl)C(=O)C2(C)C)CC1.Cl (stereo not shown) [Compound 13, 3-(2,4-dichlorobenzyl)-1-(2-hydroxy-3-(4-(2-methoxyphenyl)piperazin-1-yl)propyl)-5,5-dimethylimidazolidine-2,4-dione hydrochloride]	98.0	130.7	61.2	102.8	70.8	107.7	77.3	109.3	82.2	112.7	82.8	113.3	82.2	selectivity for α1A-AR over α1B-AR ([2]; from IC50 ratio): ~ 2 fold; Systolic blood pressure ([4]; 2.0 mg/kg i.v., 50 min): 117.2; Diastolic blood pressure ([4]; 2.0 mg/kg i.v., 60 min): 83.7; Systolic blood pressure ([4]; 2.0 mg/kg i.v., 60 min): 118.0; effect on systolic and diastolic blood pressure (in words) [4, 8]: statistically significant reduction; melting point: 144 to 146 °C
289	Antagonist	1220	1.12	Antagonist	1370	0.89	COc1cccc(N2CCN(CC(O)CN3C(=O)N(Cc4ccc(Cl)cc4Cl)C(=O)C3(C)C)CC2)c1.Cl (stereo not shown) [Compound 14, 3-(2,4-dichlorobenzyl)-1-(2-hydroxy-3-(4-(3-methoxyphenyl)piperazin-1-yl)propyl)-5,5-dimethylimidazolidine-2,4-dione hydrochloride]	100.8	132.5	100.3	132.3	100.7	132.0	96.0	129.3	96.0	127.7	97.3	125.8	94.3	Systolic blood pressure ([4]; 2.0 mg/kg i.v., 50 min): 124.5; Diastolic blood pressure ([4]; 2.0 mg/kg i.v., 60 min): 92.0; Systolic blood pressure ([4]; 2.0 mg/kg i.v., 60 min): 124.3; melting point: 177 to 179 °C
–	–	–	–	–	–	–	COc1ccccc1N1CCN(CCCCCN2C(=O)N(Cc3ccccc3)C(=O)C2(C)C)CC1 [PI]	–	–	–	–	–	–	–	–	–	–	–	–	–	Ki ([5]; lead structure, Figure 2, read-out: α1R Ki): 42.6 nM
–	–	–	–	–	–	–	COc1cc2nc(N3CCN(C(=O)c4ccco4)CC3)nc(N)c2cc1OC [Prazosin, prazosin hydrochloride]	–	–	–	–	–	–	–	–	–	–	–	–	–	Ki [5, 9]: 0.24 nM
–	–	–	–	–	–	–	COc1ccccc1N1CCN(CCCNc2cc(=O)n(C)c(=O)n2C)CC1 [Urapidil, urapidil hydrochloride, reference compound]	–	–	–	–	–	–	–	–	–	–	–	–	–	Diastolic blood pressure [4, 10]: 93.0; Systolic blood pressure [4, 10]: 127.3; Diastolic blood pressure ([4]; 1.0 mg/kg i.v., 5 min): 77.5; Systolic blood pressure ([4]; 1.0 mg/kg i.v., 5 min): 111.3; Diastolic blood pressure ([4]; 1.0 mg/kg i.v., 10 min): 75.5; Systolic blood pressure ([4]; 1.0 mg/kg i.v., 10 min): 109.5; Diastolic blood pressure ([4]; 1.0 mg/kg i.v., 20 min): 76.0; Systolic blood pressure ([4]; 1.0 mg/kg i.v., 20 min): 110.2; Diastolic blood pressure ([4]; 1.0 mg/kg i.v., 30 min): 78.8; Systolic blood pressure ([4]; 1.0 mg/kg i.v., 30 min): 112.2; Diastolic blood pressure ([4]; 1.0 mg/kg i.v., 40 min): 79.2; Systolic blood pressure ([4]; 1.0 mg/kg i.v., 40 min): 112.7; Diastolic blood pressure ([4]; 1.0 mg/kg i.v., 50 min): 80.8; Systolic blood pressure ([4]; 1.0 mg/kg i.v., 50 min): 114.0; Diastolic blood pressure ([4]; 1.0 mg/kg i.v., 60 min): 81.2; Systolic blood pressure ([4]; 1.0 mg/kg i.v., 60 min): 115.0; lowest hypotensive (effective) dose [4, 8]: 1.0 mg/kg; Ki [5, 9]: 128 nM
–	–	–	–	–	–	–	COc1ccccc1N1CCN(CC(O)COc2cccc3ccccc23)CC1 (stereo not shown) [naftopidil]	–	–	–	–	–	–	–	–	–	–	–	–	–	higher affinity for α1D- than for α1A-AR subtype [6]: 3 fold
